According to ChEMBL document CHEMBL1157539, “Thousands of chemical starting points for antimalarial lead identification” (Nature, 2010):

System: Plasmodium falciparum
Experiment: GSK_TCMDC: Inhibition of Plasmodium falciparum 3D7 in whole erythrocytes, using parasite LDH activity as an index of growth.
Format: functional, organism-based
Details: Plasmodium falciparum, 3D7

Row | Structure (SMILES) | XC50 [nM]
1 | COc1ccc2nc(-c3ccccc3)cc(N/N=C/c3ccc([N+](=O)[O-])o3)c2c1 | 202
2 | c1cc(-c2nc3ccccc3[nH]2)nc(-c2nc3ccccc3[nH]2)c1 | 1120
3 | N=c1n(CCN2CCCCC2)c2ccccc2n1CC(O)c1cccc(Br)c1 (configuration not stated) | 1140
4 | O=C(NCCN1CCCC1)c1cc(-c2ccc(Cl)c(O)c2)c(-c2ccncc2)o1 | 1630
5 | COc1ccc(CCN(C)CCc2ccc(NC(=O)c3cccc4c(=O)c5ccccc5sc34)cc2)cc1 | 859
6 | CCOC(=O)C1=C(C)N=c2sc(=Cc3ccccc3O)c(=O)n2C1c1ccc(OC)c2ccccc12 (configuration not stated) | 1260
7 | C[C@H](Cc1ccc(C[C@@H](C)NCC(O)c2cc(Cl)c(N)c(Cl)c2)cc1)NCC(O)c1cc(Cl)c(N)c(Cl)c1 (some centres not stated) | 893
8 | COc1ccc(N(c2nc(-c3cc(Cl)ccc3Cl)cs2)C2CCNC2)cc1 (configuration not stated) | 873
9 | CS(=O)(=O)NCCCNCc1ccc(-c2cccc(-c3nc4cc(C(F)(F)F)ccc4[nH]3)c2)cc1 | 854
10 | COc1ccc2nccc([C@@H](O)CN3CCC(NC(=O)/C=C/c4ccc5cc(C)[nH]c5c4)CC3)c2c1 | 728
11 | CC1CN(c2nc(NCCc3ccc(O)cc3)nc(NCc3ccccc3-c3ccc(C(F)(F)F)cc3)n2)CC(C)N1 (configuration not stated) | 529
12 | CCCCCCCN1CC[C@@H](CCCc2ccnc3ccc(OC)cc23)[C@@H](CNC)C1 | 211
13 | c1ccc2c(C3CCN(CCCCOc4ccc5c(c4)CCN(C4CCC4)CC5)CC3)c[nH]c2c1 | 705
14 | O=C(Nc1cccc(-c2cccc(-c3nc4ccccc4[nH]3)c2)c1)Nc1ccc(F)c(F)c1F | 55.1
15 | O=[N+]([O-])c1cc2c(cc1C=NNc1nc(=Nc3ccccc3)[nH]c(=Nc3ccccc3)[nH]1)OCO2 | 866
16 | N=C(N)Nc1ccc(OCCCCCOc2ccc(NC(=N)N)cc2Br)c(Br)c1 | 262
17 | COc1cc(NC(=O)/C=C/c2cc(F)cc(F)c2F)cc(OCCN2CCCCC2)c1 | 153
18 | Cc1cccc2nc(-c3cccc(-c4cccc(CN5CCN(c6ccc(C#N)cn6)CC5)c4)c3)[nH]c12 | 1160
19 | O=C(NC1CCC(CN2CCC(c3c[nH]c4ccccc34)CC2)CC1)c1cc2ccccc2o1 (configuration not stated) | 971
20 | CC(C)CNCc1cccc(-c2cccc(CN(CCCN3CCN(C)CC3)C(=O)/C=C/c3ccccc3)c2)c1 | 926
21 | CN(C)CCOc1ccc(-c2cc(-c3ccc(Cl)c(O)c3)c(-c3ccncc3)[nH]2)cc1 | 580
22 | CCOc1ccc2[nH]c(C)cc(=NN=Cc3ccc(Cl)cc3)c2c1 | 763
23 | CN(C)CCC1CCCc2ccc(NC(=O)Nc3cccc(Cl)c3Cl)cc21 (configuration not stated) | 958
24 | Cc1ccc(NC(=S)NC2CCN(CCCCCNC(=O)/C=C/c3ccc(Cl)c(Cl)c3)CC2)cc1Cl | 992
25 | CCCCOC(=O)c1ccc(NC(=O)Nc2ccc(Cn3ncc(N4CCCNCC4)c(Cl)c3=O)cc2)cc1 | 739

Row | Structure (SMILES) | XC50 [nM]
26 | Cc1ccccc1OCCCN1CCN(CC(c2ccc(F)cc2)N2CCN(C(C)C)CC2)CC1 (configuration not stated) | 1410
27 | O=C(NCCCN1CCC(NC(=O)c2ccc(-c3cccnc3)cc2)CC1)c1ccc(Cl)c(Cl)c1 | 854
28 | COc1ccc(S(=O)(=O)N2CCOCC2)cc1NC(=O)c1cc2ccccc2o1 | 795
29 | COCCN(CCOC)c1ncc(-c2ccsc2)c(-c2nc(C)c(C)s2)n1 | 843
30 | COc1cccc(C(=O)NCc2cccs2)c1OCc1ccccc1 | 921
31 | Nc1nccc(-c2ccc3c(-c4cccc(F)c4)cnc(N)c3c2)n1 | 1020
32 | CN(CCO)Cc1ccc(-c2ccc(NS(=O)(=O)c3cccc4cccnc34)cc2)cc1 | 795
33 | COc1cc(OC)c(NC(=O)C2c3ccccc3C(=O)N(C)C2c2cccs2)cc1Cl (configuration not stated) | 764
34 | CC(C)CNCc1ccc(-c2ccc(CN(C(=O)NC3CCCCC3)C3CCN(Cc4ccccc4)CC3)cc2)cc1 | 785
35 | O=C(C=Cc1ccc(Cl)c(Cl)c1)NCCCCCN1CCC(CCNC(=O)c2sc3ccccc3c2Cl)CC1 | 1010
36 | COc1ccc(CC(=O)Nc2ccc(Nc3nc(C)cc(N(C)C)n3)cc2)cc1 | 790
37 | CC(=O)N1CCN(c2ccc(NC(=O)c3oc(-c4ccccc4)nc3C(F)(F)F)cn2)CC1 | 840
38 | Cc1cc(C(=O)OCC(=O)Nc2c(C)n(C)n(-c3ccccc3)c2=O)c(C)n1-c1ccc(F)cc1 | 53.9
39 | CCCCNc1nccc2ccc(-c3ccncc3)cc12 | 775
40 | COc1ccc2ccccc2c1CNCC1CCN(CC2CCCCC2)CC1 | 761
41 | Cc1ccc(NC(=O)c2ccc(N3CCN(c4ccncc4)CC3)cc2)cc1F | 736
42 | c1cc(CNC2CCCC2)cc(-c2ccc(CNc3ccc4ncccc4c3)cc2)c1 | 773
43 | N#Cc1cccc(C(=O)Nc2ccc(-c3cccc(CN4CCC(O)CC4)c3)cc2)c1 | 995
44 | O=C(CCc1ccccc1)N[C@H](Cc1c[nH]c2ccccc12)C(=O)N1CCC(NCc2ccc3c(c2)Cc2ccccc2-3)CC1 | 910
45 | CC[C@H](C)CNCc1ccc(OCc2cccc(COc3ccc(CNC[C@@H](C)CC)cc3I)c2)c(I)c1 | 396
46 | CCc1ccc(C2CCN(CCCCNC(=O)c3ccc(-c4ccc(C(F)(F)F)cc4)cc3)CC2)c(OCCO)c1 | 410
47 | Cc1c(-c2cccc(NC(=O)C(C)(C)Oc3ccc(Cl)cc3)c2)nc2ncccn12 | 170
48 | CCNc1cc(C)nc(Nc2ccc(NC(=O)C3CCCC3)cc2)n1 | 1120
49 | Cc1ccc(F)c(C(=O)Nc2cccc(-c3nn4ccccc4c3-c3ccnc(Nc4cccc(F)c4)n3)c2)c1F | 1050
50 | COc1ccc(-c2ccc(NC(=O)c3ccc(Cl)cc3)cc2)cc1CN1CCC(O)CC1 | 1090

Row | Structure (SMILES) | XC50 [nM]
51 | O=C(NCc1cccs1)[C@H](Cc1ccccc1)Nc1ccnc(NCCc2ccccc2)n1 | 1050
52 | N[C@@H](COc1cccc2c(-c3ccncc3)c(-c3cccc(NC(=O)Nc4ccccc4)c3)nn12)c1ccccc1 | 408
53 | Cc1ccc(C(NC(=O)Cc2ccccc2)c2ccc3cccnc3c2O)cc1 (configuration not stated) | 623
54 | CCCCN1Cc2c(n(CC(=O)Nc3ccccc3)c3cc(-c4ccccc4)nn3c2=O)C1=O | 811
55 | COc1ccccc1CCC(C)(C)NC(=O)CC(CCc1ccccc1)Nc1ccc(C#N)c2ccccc12 (configuration not stated) | 919
56 | Cc1cc(NC2CCCC2)nc(Nc2ccc(F)cc2)n1 | 471
57 | Nc1ncc(-c2ccc3nccc(-c4ccncc4)c3c2)cc1S(=O)(=O)N1CCCCC1 | 581
58 | Cc1c(C(=O)Nc2cc(Sc3ccc(F)cc3)cc([N+](=O)[O-])c2)sc2ncn(Cc3cccc(F)c3)c(=O)c12 | 720
59 | NC(Cc1cccc(I)c1)C(=O)NCC1CCCO1 (configuration not stated) | 895
60 | O=C(NCc1ccc(F)cc1)c1ccc(N2CCN(c3ccncc3)CC2)cn1 | 886
61 | O=C(NCc1ccccc1)c1nn(CCCN2CCC3(CC2)C(=O)NCN3c2ccccc2)cc1-c1ccc(Cl)c(Cl)c1 | 1050
62 | Cc1ccc(NC(=O)NC2CCN(c3ccnc4ccccc34)CC2)cc1 | 790
63 | Cc1cccc2nc(-c3cccc(-c4cccc(NC(=O)c5ccc(=O)[nH]n5)c4)c3)[nH]c12 | 789
64 | CN1CCCN(Cc2ccc(-c3ccc(NC(=O)c4cccc(C#N)c4)cc3)cc2)CC1 | 875
65 | C=C(C)C1CC=C(CN2CCC(N3CCc4cc(NC(=O)c5cc(C)on5)ccc43)C2)CC1 (configuration not stated) | 707
66 | CN1CCN(c2ccnc3ccc(NC(=O)Nc4cccc5c(Br)cccc45)cc23)CC1 | 153
67 | Cc1cccc(CNc2nc(C)cc(N[C@@H](Cc3ccccc3)C(=O)NCCc3ccccc3)n2)c1 | 673
68 | CCc1ccc(NC(=O)C=NNC(=N)N)cc1 | 902
69 | CN(C)CCNCc1ccc(-c2ccc3c(Nc4ccc(Oc5ccccc5)cc4)ccnc3c2)o1 | 280
70 | Cc1cnc(Nc2cccnc2)nc1Nc1ccccc1C(=O)NC(C)C | 1200
71 | Cc1noc(-c2cccs2)c1C(=O)NC(C)c1cccc2ccccc12 (configuration not stated) | 129
72 | Cc1cccc2c3c([nH]c12)C1(CCN(Cc2ccccc2)CC1)NC(C(=O)NCc1ccccc1)C3 (configuration not stated) | 1370
73 | O=C(CCNc1ccnc(NCCc2ccccc2)n1)Nc1ccccc1 | 836
74 | COc1ccc(C(=O)N2CCC3(CC2)C(=O)N(CC(=O)NC2CCCCC2)CN3c2ccccc2)c(OC)c1 | 224
75 | C=CCOC1OC(COC(c2ccccc2)(c2ccccc2)c2ccccc2)C(OC(C)=O)C(OC(C)=O)C1NC(C)=O (configuration not stated) | 657

Row | Structure (SMILES) | XC50 [nM]
76 | CCCCC(CCCC)CN1C(=O)C(c2ccccc2)(c2ccccc2)N=C1N | 182
77 | Cc1cc2nc(-c3ccc(/C=C/C(=O)NCCCc4ccccc4)cc3)[nH]c2cc1C | 955
78 | COc1ccc(NC(=O)c2ccc(Br)c(C)c2)cc1N1CCN(CCCCc2ccccc2)CC1 | 817
79 | COc1ccc(CNC2Cc3ccccc3C2)cc1-c1ccc(S(=O)(=O)NCc2cccnc2)s1 | 1110
80 | CCNC[C@@H](O)[C@H](Cc1ccccc1)NC(=O)c1cc2c3c(c1)c(CC)cn3CCS(=O)(=O)N2C | 810
81 | Cc1nc2ccccc2c(=O)n1NCc1ccc(Cl)c(Cl)c1 | 146
82 | COc1cc(Cc2cnc(N)nc2N)cc(OCCCCC2SC(=O)NC2=O)c1Br (configuration not stated) | 123
83 | Cc1ccc(C)c(C2CCN(CCCCNC(=O)c3ccc(NC(=O)c4ccc(Cl)cc4)cc3)CC2)c1 | 847
84 | Cc1cccc(C(=O)N2CCN(Cc3cccc(NC(=O)c4cccs4)c3)CC2)c1 | 221
85 | CCCC(=O)NC(c1ccc(C(C)C)cc1)c1ccc2cccnc2c1O (configuration not stated) | 934
86 | COc1cccc(C2(NC[C@@H](O)[C@H](Cc3ccccc3)NC(=O)c3ccccc3)CCCCC2)c1 | 729
87 | Cc1cc(-c2ccc(NC(=O)N3CCc4cc(Br)c(N5CCN(C)CC5)cc43)cc2)cc(C)n1 | 1010
88 | Cc1nc2sccn2c1C(=O)NCCc1ccccc1Cl | 800
89 | CCOC(=O)c1cn(CC)c2cc(N3CCCCC3)c(F)cc2c1=O | 125
90 | CC(C)CNCc1ccc(-c2cccc(CN(CCN(C)C)C(=O)CCC3CCCC3)c2)cc1 | 809
91 | O=C(Nc1ccc(-c2nc3ccccc3[nH]2)cc1)c1cccc(S(=O)(=O)N2CCCC2)c1 | 743
92 | CN(C)CCNCc1cccc(-c2cccc(-c3nc4ccccc4[nH]3)c2)c1 | 766
93 | Oc1ccc(Cl)cc1CN1CCCC(COC(c2ccc(F)cc2)c2ccc(F)cc2)C1 (configuration not stated) | 677
94 | Cc1cc(CNC(=O)c2ccc(-c3ccc(-c4nc5cc(C(F)(F)F)ccc5[nH]4)s3)cc2)on1 | 732
95 | Cc1ccc(C)c(NC(=O)CC2C(=O)N(c3ccccc3)C(=S)N2Cc2ccco2)c1 (configuration not stated) | 570
96 | COc1ccc(-c2cccc(NC(=O)c3ccc(F)cc3)c2)cc1CN1CCCN(C)CC1 | 833
97 | CC1CCCCN1S(=O)(=O)c1ccc(NC(=O)c2cc(-c3ccccc3O)n[nH]2)cc1 (configuration not stated) | 756
